What was measured:
[1] = test system: Candida tropicalis CCM 8264 (ATCC 750); assay: Antifungal microdilution broth (EUCAST), CT; assay type: cell-based; conditions: read after 24 h; read-out: CT MIC
[2] = test system: Pseudomonas aeruginosa CCM 3955 (ATCC 27853); assay: Antibacterial microdilution broth (EUCAST), PA; assay type: cell-based; conditions: read after 24 h
[3] = test system: Mycobacterium smegmatis DSM 43465 (ATCC 607); assay: Microplate Alamar Blue Assay (MABA), M. smegmatis; assay type: cell-based; conditions: MABA, resazurin after 48 h
[4] = test system: Candida parapsilosis CCM 8260 (ATCC 22019); assay: Antifungal microdilution broth (EUCAST), CP; assay type: cell-based; conditions: read after 24 h; read-out: CP MIC
[5] = test system: Staphylococcus aureus subsp. aureus CCM 4223 (ATCC 29213); assay: Antibacterial microdilution broth (EUCAST), SA; assay type: cell-based; conditions: read after 24 h; read-out: SA MIC
[6] = test system: Klebsiella pneumoniae CCM 4415 (ATCC 10031); conditions: 24 h
[7] = test system: Lichtheimia corymbifera CCM 8077; assay: Antifungal microdilution broth (EUCAST), LC; assay type: cell-based; conditions: read after 24 h; read-out: LC MIC
[8] = test system: Candida albicans CCM 8320 (ATCC 24433); assay: Antifungal microdilution broth (EUCAST), CA; assay type: cell-based; conditions: read after 24 h; read-out: CA MIC
[9] = test system: Candida krusei CCM 8271 (ATCC 6258); assay: Antifungal microdilution broth (EUCAST), CK; assay type: cell-based; conditions: read after 24 h; read-out: CK MIC
[10] = test system: Aspergillus fumigatus ATCC 204305; assay: Antifungal microdilution broth (EUCAST), AF; assay type: cell-based; conditions: read after 24 h; read-out: AF MIC
[11] = test system: Staphylococcus aureus subsp. aureus methicillin-resistant (MRSA) CCM 4750 (ATCC 43300); assay: Antibacterial microdilution broth (EUCAST), MRSA; assay type: cell-based; conditions: read after 24 h; read-out: MRSA MIC
[12] = test system: Aspergillus flavus CCM 8363; assay: Antifungal microdilution broth (EUCAST), AFla; assay type: cell-based; conditions: read after 24 h; read-out: AFla MIC
[13] = test system: Escherichia coli CCM 3954 (ATCC 25922); assay: Antibacterial microdilution broth (EUCAST), EC; assay type: cell-based; conditions: read after 24 h; read-out: EC MIC
[14] = test system: Enterococcus faecalis CCM 4224 (ATCC 29212); assay: Antibacterial microdilution broth (EUCAST), EF; assay type: cell-based; conditions: read after 24 h; read-out: EF MIC
[15] = test system: Trichophyton interdigitale CCM 8377 (ATCC 9533); assay: Antifungal microdilution broth (EUCAST), TI; assay type: cell-based; conditions: read after 72 h
[16] = test system: M. aurum DSM 43999 (ATCC 23366); assay: Microplate Alamar Blue Assay (MABA), M. aurum; assay type: cell-based; conditions: MABA, resazurin after 72 h
[17] = test system: Mycobacterium tuberculosis H37Ra ITM-M006710 (ATCC 9431); assay: Microplate Alamar Blue Assay (MABA), Mtb H37Ra; assay type: cell-based; conditions: MABA, Middlebrook 7H9 broth pH 6.6, resazurin after 120 h
[18] = test system: Acinetobacter baumannii DSM 30007 (ATCC 19606); assay: Antibacterial microdilution broth (EUCAST), ACI; assay type: cell-based; conditions: read after 24 h; read-out: ACI MIC

SMILES: COC(=O)c1nccnc1NC(=O)c1ccccc1 [Compound 1e]
- MIC [1]: > 500 µM
- PA MIC [2]: > 500 µM
- M. smegmatis MIC [3]: 125 µg/mL
- MIC [4]: > 500 µM
- MIC [5]: > 500 µM
- KP MIC [6]: > 500 µM
- MIC [7]: > 500 µM
- MIC [8]: > 500 µM
- MIC [9]: > 500 µM
- MIC [10]: > 500 µM
- MIC [11]: > 500 µM
- MIC [12]: > 500 µM
- MIC [13]: > 500 µM
- MIC [14]: > 500 µM
- TI MIC [15]: > 500 µM
- M. aurum MIC [16]: 250 µg/mL
- Mtb H37Ra MIC [17]: ≥ 500 µg/mL
- MIC [18]: > 500 µM
